In BindingDB's records for doi:10.7270/Q26H4FT9 (Nmmlsc, 2009):

Molecular target: Cell division control protein 42 homolog (Homo sapiens, UniProt P60953)
Experiment: Cdc42 activated mutant GTP-binding inhibitors, SAR follow-up, biochemical, bead-based multiplex flow cytometry, additional SAR set (AID 2021)

Chain of Cell division control protein 42 homolog (P60953 whole entry): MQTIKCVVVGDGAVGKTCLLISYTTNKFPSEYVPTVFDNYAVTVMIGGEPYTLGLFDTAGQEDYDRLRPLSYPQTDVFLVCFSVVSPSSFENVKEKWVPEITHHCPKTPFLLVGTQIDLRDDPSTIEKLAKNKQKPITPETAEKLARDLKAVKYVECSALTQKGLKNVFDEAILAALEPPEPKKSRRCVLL

## O=C1Nc2c(Cl)cccc2C1=C1Nc2ccccc2C1=O
  EC50: 30 µM

## O=C1Nc2c(Br)cccc2C1=C1Nc2ccccc2C1=O
  EC50: 30 µM

## O=C1Nc2c(F)cccc2C1=C1Nc2ccccc2C1=O
  EC50: 30 µM

## O=C1NC(=O)/C(=C2/C(=O)Nc3ccccc32)N1
  EC50: 5.26 µM

## O=C1Nc2ccc(Br)cc2C1=C1Nc2ccccc2C1=O
  EC50: 30 µM

## O=C1Nc2ccccc2/C1=C1/Nc2ccccc2C1=O [2-[(3Z)-2-oxo-2,3-dihydro-1H-indol-3-ylidene]-2,3-dihydro-1H-indol-3-one]
  EC50: 30 µM

## O=C1N=c2ccccc2=C1c1[nH]c2ccccc2c1NO [3-[3-(hydroxyamino)-1H-indol-2-yl]-2-indolone]
  EC50: 30 µM

## O=C1N=c2ccc(Br)cc2=C1c1[nH]c2ccccc2c1NO [5-bromanyl-3-[3-(oxidanylamino)-1H-indol-2-yl]indol-2-one]
  EC50: 30 µM

## O=C1N=c2c(Br)cccc2=C1c1[nH]c2ccccc2c1NO [7-bromanyl-3-[3-(oxidanylamino)-1H-indol-2-yl]indol-2-one]
  EC50: 55.1 µM

## O=C1N=c2c(Cl)cccc2=C1c1[nH]c2ccccc2c1NO [7-chloro-3-[3-(hydroxyamino)-1H-indol-2-yl]-2-indolone]
  EC50: 30 µM

## O=C1N=c2c(F)cccc2=C1c1[nH]c2ccccc2c1NO [7-fluoro-3-[3-(hydroxyamino)-1H-indol-2-yl]-2-indolone]
  EC50: 30 µM

## O=C1NC(=S)N/C1=C1\C(=O)Nc2ccccc21 [(3Z)-3-(5-oxo-2-sulfanylideneimidazolidin-4-ylidene)-1H-indol-2-one]
  EC50: 30 µM
